Earlier results as cited in patent US11707436B2, “Methods of treating inflammatory disorders and global inflammation with compositions comprising phospholipid nanoparticle encapsulations of NSAIDS” (NanoSphere Health Sciences, LLC, priority 2014, dated 2023).
In brackets after ≈: the same amount, converted by molar mass.

Assays:
NF-KappaB [1] = conditions: highly variable efficacy
NF-KappaB [2] = conditions: for inhibition of NF-kappaB activity: concentrations comparable to those used in therapy; for inhibition of activation of the NF-KappaB pathway: concentrations measured in serum of treated patients
[3] = for Solubility of NSAIDs at 25 C: source drugbank.ca
[4] = clinical studies
[5] = after removal of lower third molars
[6] = renal colic

Q: Which “inhibition of TNF-induced NF-KappaB activation” value (NF-KappaB [1]) does the source give for `CC(=O)Oc1ccccc1C(=O)O` [Acetylsalicylic acid] here?
A: Its value is “inhibited”.

Q: What about the “inhibition of NF-kappaB activity” value (NF-KappaB [2]) of the same molecule?
A: Its value is “effectively inhibit”.

Q: What about the “inhibition of activation of the NF-KappaB pathway” value (NF-KappaB [2]) of the same molecule?
A: The value was “inhibit activation”.

Q: What about the “Solubility of NSAIDs at 25 C” value [3] of the same molecule?
A: The value was 3300 µg/mL.

Q: Which solubility in water ([3]; words only) does the source give for `C=C(C)[C@@H]1CCC(C)=C[C@H]1c1c(O)cc(CCCCC)cc1O` [Cannabidiol] here?
A: Its solubility in water is “insolubility in water”.

Q: And the “NF-Kappa B activation, pro-inflammatory cytokines and mediators (TNF-alpha, iNOS)” value (NF-Kappa B)?
A: The value was “attenuate”.

Q: For `O=C(O)Cc1ccccc1Nc1c(Cl)cccc1Cl` [Diclofenac], which “Solubility of NSAIDs at 25 C” value [3] is on record?
A: Its value is 50000 µg/mL.

Q: Which “inhibition of TNF-induced NF-KappaB activation” value (NF-KappaB [1]) does the source give for `CC(C)Cc1ccc(C(C)C(=O)O)cc1` (centres unmarked) [Ibuprofen] here?
A: Its value is “inhibited”.

Q: What about the “inhibition of NF-kappaB activity” value (NF-KappaB [2]) of the same molecule?
A: Its value is “effectively inhibit”.

Q: And the “Solubility of NSAIDs at 25 C” value [3]?
A: The value was 21000 µg/mL.

Q: And the “solubility water at 25° C” value [3]?
A: The value was 21000 µg/mL (≈ 102 mM).

Q: Which “concentrations in CSF” value [4] does the source give for `COc1ccc2c(c1)c(CC(=O)O)c(C)n2C(=O)c1ccc(Cl)cc1` [Indomethacin] here?
A: The value was “minimal concentrations”.

Q: What about the “Solubility of NSAIDs at 25 C” value [3] of the same molecule?
A: Its value is 937 µg/mL.

Q: For `CC(C(=O)O)c1cccc(C(=O)c2ccccc2)c1` (centres unmarked) [Ketoprofen], which “concentrations in CSF” value [4] is on record?
A: The value was “minimal concentrations”.

Q: Which results are given for `COc1ccc2cc([C@H](C)C(=O)O)ccc2c1` [Naproxen]?
A: inhibition of TNF-induced NF-KappaB activation (NF-KappaB [1]): inhibited; inhibition of NF-kappaB activity (NF-KappaB [2]): effectively inhibit

Q: Which results are given for `O=C(O)c1ccccc1O` [Salicylic acid]?
A: Solubility of NSAIDs at 25 C [3]: 3000 µg/mL; solubility water at 25° C [3]: 3000 µg/mL (≈ 21.7 mM)

Q: Which “inhibition of TNF-induced NF-KappaB activation” value (NF-KappaB [1]) does the source give for `COc1cc(/C=C/C(=O)CC(=O)/C=C/c2ccc(O)c(OC)c2)ccc1O` [curcumin] here?
A: The value was “inhibited”.

Q: Which “concentrations in CSF” value [4] does the source give for `CC(C(=O)O)c1ccc(N2CC=CC2)c(Cl)c1` (centres unmarked) [piroprofen] here?
A: Its value is “minimal concentrations”.

Q: Which “pain scores, oral versus sublingual route” value [5] does the source give for `CN1C(C(=O)Nc2ccccn2)=C(O)c2ccccc2S1(=O)=O` [piroxicam] here?
A: The value was “no significant differences”.

Q: And the “efficacy of sublingual versus IM injection” value [6]?
A: Its value is “as effective as the IM injection”.

Q: With `Oc1ccc(C=Cc2cc(O)cc(O)c2)cc1` [resveratrol] as the molecule, how does the “inhibition of TNF-induced NF-KappaB activation” value (NF-KappaB [1]) read?
A: The value was “inhibited”.

Q: For `O=C([O-])c1ccccc1O.[Na+]` [salicylate, sodium salicylate], which “inhibition of activation of the NF-KappaB pathway” value (NF-KappaB [2]) is on record?
A: Its value is “inhibit activation”.

Q: For `CC1=C(CC(=O)O)c2cc(F)ccc2/C1=C\c1ccc([S+](C)[O-])cc1` (centres unmarked) [sulindac], which “inhibition of TNF-induced NF-KappaB activation” value (NF-KappaB [1]) is on record?
A: The value was “inhibited”.

Q: With `CC/C(=C(\c1ccccc1)c1ccc(OCCN(C)C)cc1)c1ccccc1` [tamoxifen] as the molecule, how does the “inhibition of TNF-induced NF-KappaB activation” value (NF-KappaB [1]) read?
A: The value was “inhibited”.
